Assays:
YFV (YF-hRuPac cells) = assay: microbe, parasite or virus in culture; format: cell-based, yellow fever virus; settings: for inhibition at 25 µM / EC50: Yellow fever virus; for inhibition at 25 µM: 24 h, read-out: YFV Inh; for EC50: read-out: YFV EC50
EBOV minigenome = assay: microbe, parasite or virus in culture; format: cell-based, Ebola virus; settings: Zaire ebolavirus; for inhibition at 25 µM: 24 h, read-out: EBOV Inh; for EC50: read-out: EBOV EC50
DNG (D2-hRuPac cells) = assay: DNG antiviral activity, D2-hRuPac cells, Renilla luciferase; format: cell-based, Dengue fever virus; settings: Dengue virus, secondary screening
WNV (WN-hRuPac cells) = assay: WNV antiviral activity, WN-hRuPac cells, Renilla luciferase; format: cell-based, West Nile virus; settings: for EC50 / inhibition at 25 µM: West Nile virus; for EC50: Secondary Data, WNV, read-out: WNV EC50; for inhibition at 25 µM: primary screening, 25 μM final concentration, 24 hours, percent inhibition of viral replication, read-out: WNV Inh; for WNV TI: therapeutic index CC50/EC50, WNV
RSV minigenome = assay: RSV minigenome-dependent β-galactosidase expression assay (RSV β-Gal); format: cell-based, respiratory syncytial virus; settings: for EC50 / inhibition at 25 µM: human respiratory syncytial virus; for EC50: Secondary Data, RSV, read-out: RSV EC50; for inhibition at 25 µM: primary screening, 25 μM final concentration, 24 hours, percent inhibition of viral replication, read-out: RSV Inh; for RSV TI: therapeutic index CC50/EC50, RSV
[1] = tested on: HCV replicon (Clone A cells, Huh7, subgenomic hepatits C virus RNA); assay: HCV Neo screening assay (HCV replicon, NPTII ELISA); format: cell-based, hepatitis C virus; settings: for EC50 / inhibition at 25 µM: Hepatitis C virus, Huh-7; for EC50: Secondary Data, HCV; for inhibition at 25 µM: primary screening, 25 μM final concentration, 24 hours, percent inhibition of viral replication, read-out: HCV Inh; for HCV TI: therapeutic index CC50/EC50, HCV
SINV (SR19-F-luc cells) = assay: SINV antiviral activity, SR19-F-luc cells, Firefly luciferase; format: cell-based; settings: Sindbis virus; for inhibition at 25 µM: primary screening, 25 μM final concentration, 24 hours, percent inhibition of viral replication, read-out: SINV Inh; for EC50: secondary screening, SR19-F-luc cells

Row | Compound | YFV TI (YFV (YF-hRuPac cells)) | inhibition at 25 µM (YFV (YF-hRuPac cells)) | EC50 (YFV (YF-hRuPac cells)) | inhibition at 25 µM (EBOV minigenome) | EC50 (EBOV minigenome) | EC50 (DNG (D2-hRuPac cells)) | EC50 (WNV (WN-hRuPac cells)) | inhibition at 25 µM (WNV (WN-hRuPac cells)) | WNV TI (WNV (WN-hRuPac cells)) | EC50 (RSV minigenome) | inhibition at 25 µM (RSV minigenome) | inhibition at 25 µM [1] | inhibition at 25 µM (SINV (SR19-F-luc cells)) | EC50 (SINV (SR19-F-luc cells)) | CC50 (in vitro; DNG CC50) | CC50 (in vitro; EBOV CC50) | CC50 (in vitro; RSV CC50) | CC50 (in vitro; SINV CC50) | CC50 (in vitro; WNV CC50) | CC50 (in vitro; YFV CC50) | other results
1 | CCOC(=O)c1cnc2c(Cl)cc(Cl)cc2c1NCc1ccco1 [Compound 52] | 8.84 | 90% | 4.99 µM | 76.9% | 13.2 µM | 15.8 µM | 10.8 µM | 88.9% | 4.08 | 2.51 µM | 99.1% | 76.5% | 10.2% | 24.8 µM | 44.1 µM | 44.1 µM | 44.1 µM | 44.1 µM | 44.1 µM | 44.1 µM | RSV TI (RSV minigenome): 17.57; EC50 [1]: 12.5 µM; HCV TI [1]: 5.62; CC50 (in vitro; HCV CC50): 70.2 µM
2 | Cc1cc(C)c2nc(C)cc(Nc3ccc(Cl)c(Cl)c3)c2c1 [Compound 53] | 7.6 | 79.9% | 6.47 µM | 75.6% | 75 µM | 28.7 µM | 20.9 µM | 91.9% | 2.35 | 3.78 µM | 100% | 150% | 88.1% | 6.69 µM | 49.1 µM | 49.1 µM | 49.1 µM | 49.1 µM | 49.1 µM | 49.1 µM | RSV TI (RSV minigenome): 13; EC50 [1]: 4.78 µM; HCV TI [1]: 1.74; CC50 (in vitro; HCV CC50): 8.3 µM
3 | Cc1cc(C)c2nc(C)cc(NCc3ccco3)c2c1 [Compound 54] | 12.13 | 91.1% | 4.14 µM | 38.4% | 75 µM | 21.9 µM | 6.91 µM | 84.4% | 7.26 | 5.8 µM | 87.9% | 101% | 47.8% | 38.3 µM | 50.2 µM | 50.2 µM | 50.2 µM | 50.2 µM | 50.2 µM | 50.2 µM | RSV TI (RSV minigenome): 8.66; EC50 [1]: 26 µM; HCV TI [1]: 0.92; CC50 (in vitro; HCV CC50): 23.9 µM
4 | CCOC(=O)c1cnc2c(Cl)cccc2c1NCc1ccco1 [Compound 55] | 7.96 | 94.3% | 6.07 µM | 72.8% | 10.4 µM | 8.53 µM | 13 µM | 94.9% | 3.72 | 5.46 µM | 81.5% | 21.9% | 29.1% | ≥ 75 µM | 48.3 µM | 48.3 µM | 48.3 µM | 48.3 µM | 48.3 µM | 48.3 µM | RSV TI (RSV minigenome): 8.85; CC50 (in vitro; HCV CC50): ≥ 75 µM
5 | CCOc1ccc2nc(C)cc(Nc3ccc(OC)c(OC)c3)c2c1 [Compound 56] | 7.93 | 98.7% | 3.51 µM | 89.3% | 47.5 µM | 8.48 µM | 3.5 µM | 95.7% | 7.95 | 3.33 µM | 99% | 128% | 95.8% | 2.33 µM | 27.8 µM | 27.8 µM | 27.8 µM | 27.8 µM | 27.8 µM | 27.8 µM | RSV TI (RSV minigenome): 8.36; EC50 [1]: 4.56 µM; HCV TI [1]: 1.47; CC50 (in vitro; HCV CC50): 6.69 µM
6 | CCOc1ccc2nc(C)cc(Nc3ccc(N(C)C)cc3)c2c1 [Compound 57] | 11.24 | 95.8% | 2.76 µM | 70.8% | 75 µM | 6.28 µM | 3.6 µM | 85.7% | 8.62 | 4.56 µM | 97.9% | 136% | 87.7% | 3.97 µM | 31 µM | 31 µM | 31 µM | 31 µM | 31 µM | 31 µM | RSV TI (RSV minigenome): 6.8; EC50 [1]: 4.98 µM; HCV TI [1]: 0.85; CC50 (in vitro; HCV CC50): 4.23 µM
7 | CCOc1ccc2nc(C)cc(Nc3cc(Cl)ccc3OC)c2c1 [Compound 58] | 7.04 | 96.6% | 2.65 µM | 80.2% | 4.94 µM | 6.91 µM | 3.8 µM | 91.5% | 4.91 | 2.34 µM | 99.8% | 137% | 92.8% | 4.2 µM | 18.7 µM | 18.7 µM | 18.7 µM | 18.7 µM | 18.7 µM | 18.7 µM | RSV TI (RSV minigenome): 7.98; EC50 [1]: 4.95 µM; HCV TI [1]: 2.38; CC50 (in vitro; HCV CC50): 11.8 µM
8 | COC(=O)c1ccc(Nc2cc(C)nc3ccc(Cl)cc23)cc1 [Compound 60] | 2.17 | 79.4% | 34.6 µM | 57.4% | 75 µM | 15.2 µM | 14.6 µM | 68.3% | 5.14 | ≥ 75 µM | 38.1% | 71.3% | 45.8% | 12 µM | ≥ 75 µM | ≥ 75 µM | ≥ 75 µM | ≥ 75 µM | ≥ 75 µM | ≥ 75 µM | EC50 [1]: 1.4 µM; HCV TI [1]: 32.5; CC50 (in vitro; HCV CC50): 45.5 µM
9 | COC(=O)c1ccc(Nc2cc(C)nc3c(C)cccc23)cc1 [Compound 61] | 4.54 | 97.7% | 10.1 µM | 40.9% | 70.6 µM | 14.1 µM | 22.3 µM | 96.9% | 2.06 | 32.1 µM | 58.7% | 80.1% | 37.5% | 17.3 µM | 45.9 µM | 45.9 µM | 45.9 µM | 45.9 µM | 45.9 µM | 45.9 µM | RSV TI (RSV minigenome): 1.43; EC50 [1]: 0.75 µM; HCV TI [1]: 61.93; CC50 (in vitro; HCV CC50): 46.5 µM
10 | CCCOC(=O)c1ccc(Nc2cc(C)nc3ccc(C(=O)OCC)cc23)cc1 [Compound 63] | 1.35 | 54.2% | 51.8 µM | 92% | 9.03 µM | 44.8 µM | 44.1 µM | 55% | 1.59 | 72.2 µM | 56.4% | 57.2% | 53.3% | ≥ 75 µM | 70.1 µM | 70.1 µM | 70.1 µM | 70.1 µM | 70.1 µM | 70.1 µM | RSV TI (RSV minigenome): 0.97
11 | CCOC(=O)c1ccc2ncc(C(=O)OCC)c(NCCCOC(=O)C(Cl)(Cl)Cl)c2c1 [Compound 64] | 1.32 | 25.8% | 45.9 µM | 90.1% | 15.5 µM | 4.19 µM | 8.9 µM | 37.2% | 6.8 | 22 µM | 84.9% | 43.4% | 26.1% | 34.1 µM | 60.5 µM | 60.5 µM | 60.5 µM | 60.5 µM | 60.5 µM | 60.5 µM | RSV TI (RSV minigenome): 2.75
12 | Cc1cc(Nc2cccc(Cl)c2C)c2cccc(C)c2n1 [Compound 65] | – | 76.3% | ≥ 75 µM | 81.8% | 48.8 µM | ≥ 75 µM | 5.72 µM | 80.6% | 13.11 | 1.95 µM | 96.6% | 114% | 72.2% | ≥ 75 µM | ≥ 75 µM | ≥ 75 µM | ≥ 75 µM | ≥ 75 µM | ≥ 75 µM | ≥ 75 µM | RSV TI (RSV minigenome): 38.46; EC50 [1]: 8.48 µM; HCV TI [1]: 1.53; CC50 (in vitro; HCV CC50): 13 µM

— US20090221624A1, “4-AMINOQUINOLINE COMPOUNDS FOR TREATING VIRUS-RELATED CONDITIONS” (priority 2005, published 2009)
